# Test results reported in ChEMBL document CHEMBL3407431, “Structure-based modification of 3-/4-aminoacetophenones giving a profound change of activity on tyrosinase: from potent activators to highly efficient inhibitors” (Eur J Med Chem, 2015).
# Activity calls are given as the source filed them. No cut-off for these calls is given here.
# Target: T1, Tyrosinase (Agaricus bisporus) (UniProt O42713)
# T1 sequence (whole entry): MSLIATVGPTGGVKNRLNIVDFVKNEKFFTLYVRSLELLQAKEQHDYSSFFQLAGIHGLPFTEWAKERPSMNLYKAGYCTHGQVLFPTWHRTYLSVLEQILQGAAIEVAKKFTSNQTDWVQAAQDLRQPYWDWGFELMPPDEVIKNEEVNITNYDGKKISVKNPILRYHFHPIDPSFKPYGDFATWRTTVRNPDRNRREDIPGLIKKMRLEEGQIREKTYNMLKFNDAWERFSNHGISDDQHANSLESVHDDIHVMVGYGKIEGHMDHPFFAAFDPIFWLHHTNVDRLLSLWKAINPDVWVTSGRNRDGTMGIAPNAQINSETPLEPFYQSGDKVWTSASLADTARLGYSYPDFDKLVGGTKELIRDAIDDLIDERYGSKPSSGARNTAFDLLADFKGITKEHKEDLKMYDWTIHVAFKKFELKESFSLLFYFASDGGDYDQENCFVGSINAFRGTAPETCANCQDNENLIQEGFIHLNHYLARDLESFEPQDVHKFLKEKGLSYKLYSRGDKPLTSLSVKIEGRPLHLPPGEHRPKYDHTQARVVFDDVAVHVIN
# Test: Activation of mushroom tyrosinase at 0.12 to 75 ug/L relative to control
row,Activity [%],Structure (SMILES)
1,12,OC[C@H]1O[C@@H](Oc2c(O)cc(O)cc2/C=C/c2ccc(O)cc2)[C@H](O)[C@@H](O)[C@@H]1O

# Target: T1, Tyrosinase (Agaricus bisporus)
# Test: Activation of mushroom tyrosinase using L-DOPA as substrate at 100 umol/L preincubated for 30 mins followed by substrate addition measured for 1 min
row,Activity,Structure (SMILES)
1,Active,CC(=O)Nc1ccc(C(C)=O)cc1

# Target: T1, Tyrosinase (Agaricus bisporus)
# Test: Reversible inhibition of mushroom tyrosinase using L-DOPA as substrate at 0.1 to 0.5 uM
row,inhibition,Structure (SMILES)
1,Active,C/C(=N\NC(N)=S)c1ccc(NC(=O)c2ccccc2)cc1

# Target: T1, Tyrosinase (Agaricus bisporus)
# Test: Reversible inhibition of mushroom tyrosinase using L-DOPA as substrate at 1 to 2 uM
row,inhibition,Structure (SMILES)
1,Active,C/C(=N\NC(N)=S)c1cccc(NC(=O)c2ccccc2)c1

# Target: T1, Tyrosinase (Agaricus bisporus)
# Test: Non-competitive inhibition of mushroom tyrosinase using L-DOPA as substrate at 0.1 to 0.5 uM by Lineweaver-Burk plot analysis
row,inhibition,Structure (SMILES)
1,Active,C/C(=N\NC(N)=S)c1ccc(NC(=O)c2ccccc2)cc1

# Target: T1, Tyrosinase (Agaricus bisporus)
# Test: Competitive-uncompetitive mixed-2 type inhibition of mushroom tyrosinase using L-DOPA as substrate at 1 to 2 uM by Lineweaver-Burk plot analysis
row,inhibition,Structure (SMILES)
1,Active,C/C(=N\NC(N)=S)c1cccc(NC(=O)c2ccccc2)c1

# Target: T2, Tyrosinase (Agaricus bisporus, UniProt O42713)
# T2 sequence (O42713 whole entry): T1 sequence (whole entry)
# Description: Inhibition of mushroom tyrosinase diphenolase activity using L-DOPA as substrate preincubated for 30 mins followed by substrate addition measured for 1 min
row,IC50 [µM],Structure (SMILES)
1,0.498,COC(=O)Nc1ccc(/C(C)=N/NC(N)=S)cc1
2,1.53,C/C(=N\NC(N)=S)c1cccc(NC(=O)c2ccccc2)c1
3,2.2,CCCCCCC(=O)Nc1cccc(/C(C)=N/NC(N)=S)c1
4,0.578,C/C(=N\NC(N)=S)c1ccc(NC(=O)Cc2ccccc2)cc1
5,4.41,C/C(=N\NC(N)=S)c1cccc(NC(=O)C(C)(C)C)c1
6,3.62,C/C(=N\NC(N)=S)c1cccc(NC(=O)C(C)C)c1
7,0.406,C/C(=N\NC(N)=S)c1ccc(NC(=O)C(Cl)(Cl)Cl)cc1
8,6.11,C/C(=N\NC(N)=S)c1cccc(N)c1
9,1.34,C/C(=N\NC(N)=S)c1ccc(NC(=O)C(F)(F)F)cc1
10,0.814,C/C(=N\NC(N)=S)c1ccc(NC(=O)C(C)C)cc1
11,0.762,CCCCCC(=O)Nc1ccc(/C(C)=N/NC(N)=S)cc1
12,1.54,CCCCC(=O)Nc1cccc(/C(C)=N/NC(N)=S)c1
13,1.79,C/C(=N\NC(N)=S)c1cccc(NC(=O)Cc2ccccc2)c1
14,0.372,CCC(=O)Nc1ccc(/C(C)=N/NC(N)=S)cc1
15,5.76,C/C(=N\NC(N)=S)c1cccc(NC(=O)C(F)(F)F)c1
16,0.356,CCCCCCC(=O)Nc1ccc(/C(C)=N/NC(N)=S)cc1
17,0.61,C/C(=N\NC(N)=S)c1ccc(NC(=O)c2ccc(F)cc2)cc1
18,0.291,C/C(=N\NC(N)=S)c1ccc(NC(=O)c2ccccc2)cc1
19,2.62,C/C(=N\NC(N)=S)c1ccc(N)cc1
20,4.12,CC(=O)Nc1cccc(/C(C)=N/NC(N)=S)c1
21,0.508,CC(=O)Nc1ccc(/C(C)=N/NC(N)=S)cc1
22,0.492,CCCCC(=O)Nc1ccc(/C(C)=N/NC(N)=S)cc1
23,0.644,CCCC(=O)Nc1ccc(/C(C)=N/NC(N)=S)cc1
24,1.14,COc1ccc(C(=O)Nc2ccc(/C(C)=N/NC(N)=S)cc2)cc1
25,1.69,CCCCCC(=O)Nc1cccc(/C(C)=N/NC(N)=S)c1
